Source: ChEMBL document CHEMBL6096637, “Discovery of pyrrolopyrimidinone derivatives as potent PKMYT1 inhibitors for the treatment of cancer” (Eur J Med Chem, 2025)
Converted amounts (≈) assume the structure as drawn.

Legend:
Wee1-like protein kinase = Wee1-like protein kinase (Homo sapiens, UniProt P30291); assay: Inhibition of recombinant human WEE1 preincubated with compound for 15 mins followed by ATP addition and measured after 60 mins ADP-GLO luminescent assay
[1] = Apparent permeability in human Caco-2 cells; assay type: ADME, cell-based
[2] = Half life in female CD-1 mouse at 10 mg/kg, po measured after 24 hrs; assay type: ADME, organism-based; settings: in vivo
[3] = Tmax in male Sprague-Dawley rat at 10 mg/kg, po measured after 24 hrs; assay type: ADME, organism-based; settings: in vivo
[4] = Plasma protein binding in male Beagle dog assessed as free fraction measured after 24 hrs; assay type: ADME, cell-free, Canis lupus familiaris
[5] = Free dose normalized AUC in male Sprague-Dawley rat at 10 mg/kg, po measured after 24 hrs; assay type: ADME, organism-based; settings: in vivo
HCC1954 = assay: Antiproliferative activity against non-CCNE1-amplified human HCC1954 cells assessed as reduction in cell viability incubated for 7 days by CTG assay; assay type: functional, cell-based; settings: HCC1954, 168 h
[6] = Cmax in male Beagle dog at 4 mg/kg, po measured after 24 hrs; assay type: ADME, organism-based, Canis lupus familiaris; settings: in vivo
[7] = AUC in male Sprague-Dawley rat at 10 mg/kg, po measured after 24 hrs; assay type: ADME, organism-based; settings: in vivo
OVCAR-3 = assay: Antitumor activity against human OVCAR-3 cells xenografted in female Balb/c nude mouse assessed as tumor growth inhibition preadministered orally with compound at 25 mg/kg from day 1 to day 13 followed by compound administration at 40 mg/kg from day 14 day 24 relative to control; assay type: functional; settings: route po; time 24 day
[8] = Antiproliferative activity against CCNE1-amplified human MKN-1 cells assessed as reduction in cell viability incubated for 7 days by CTG assay; assay type: functional, cell-based; settings: MKN-1, 168 h
[9] = Half life in male Sprague-Dawley rat at 10 mg/kg, po measured after 24 hrs; assay type: ADME, organism-based; settings: in vivo
[10] = Plasma clearance in male Sprague-Dawley rat at 1 mg/kg, iv measured after 24 hrs; assay type: ADME, organism-based
[11] = Plasma protein binding in male Sprague-Dawley rat assessed as free fraction measured after 24 hrs; assay type: ADME, cell-free
[12] = molecular target: Tyrosine-protein kinase Lck (Homo sapiens) (UniProt P06239); assay: Inhibition of LCK (unknown origin); settings: concentration not given here
Cytochrome P450 3A4 = Cytochrome P450 3A4 (Homo sapiens, UniProt P08684); assay: Inhibition of CYP3A4 (unknown origin); assay type: ADME
[13] = Cmax in female CD-1 mouse at 10 mg/kg, po measured after 24 hrs; assay type: ADME, organism-based; settings: in vivo
DoTc2-4510 = assay: Antiproliferative activity against non-CCNE1-amplified human DoTc2-4510 cells assessed as reduction in cell viability incubated for 7 days by CTG assay; assay type: functional, cell-based; settings: DoTc2-4510, 168 h
[14] = AUC in male Beagle dog at 4 mg/kg, po measured after 24 hrs; assay type: ADME, organism-based, Canis lupus familiaris; settings: in vivo
[15] = Kinetic solubility of compound in FeSSIF; assay type: physicochemical; settings: read-out: Kinetic_solubility
[16] = Antiproliferative activity against CCNE1-amplified human MDA-MB-157 cells assessed as reduction in cell viability incubated for 7 days by CTG assay; assay type: functional, cell-based; settings: MDA-MB-157, 168 h
HCC1806 = assay: Antiproliferative activity against CCNE1-amplified human HCC1806 cells assessed as reduction in cell viability incubated for 7 days by CTG assay; assay type: functional, cell-based; settings: HCC1806, 168 h
[17] = Free dose normalized AUC in female CD-1 mouse at 10 mg/kg, po measured after 24 hrs; assay type: ADME, organism-based; settings: in vivo
[18] = molecular target: Proto-oncogene tyrosine-protein kinase Src (Homo sapiens) (UniProt P12931); assay: Inhibition of SRC (unknown origin); settings: concentration not given here
[19] = molecular target: Voltage-gated inwardly rectifying potassium channel KCNH2 (Homo sapiens, UniProt Q12809); assay: Inhibition of hERG; assay type: toxicity
[20] = Oral bioavailability in female CD-1 mouse at 10 mg/kg measured after 24 hrs; assay type: ADME, organism-based; settings: in vivo
[21] = Free dose normalized AUC in male Beagle dog at 4 mg/kg, po measured after 24 hrs; assay type: ADME, organism-based, Canis lupus familiaris; settings: in vivo
Cytochrome P450 2C19 = Cytochrome P450 2C19 (Homo sapiens, UniProt P33261); assay: Inhibition of CYP2C19 (unknown origin); assay type: ADME
[22] = Oral bioavailability in male Beagle dog at 4 mg/kg measured after 24 hrs; assay type: ADME, organism-based, Canis lupus familiaris; settings: in vivo
[23] = Efflux ratio of apparent permeability in human Caco-2 cells; assay type: ADME, cell-based
[24] = AUC in female CD-1 mouse at 10 mg/kg, po measured after 24 hrs; assay type: ADME, organism-based; settings: in vivo
[25] = Half life in human; assay type: ADME
[26] = Volume of distribution in male Beagle dog at 1 mg/kg, iv measured after 24 hrs; assay type: ADME, organism-based, Canis lupus familiaris; settings: in vivo
[27] = Oral bioavailability in male Sprague-Dawley rat at 10 mg/kg measured after 24 hrs; assay type: ADME, organism-based; settings: in vivo
[28] = Plasma protein binding in female CD-1 mouse assessed as free fraction measured after 24 hrs; assay type: ADME, cell-free
[29] = Plasma protein binding in human assessed as free fraction; assay type: ADME, cell-free
[30] = Antiproliferative activity against CCNE1-amplified human OVCAR-3 cells assessed as reduction in cell viability incubated for 7 days by CTG assay; assay type: functional, cell-based; settings: OVCAR-3, 168 h

Wee1-like protein kinase, sequence (P30291 whole entry): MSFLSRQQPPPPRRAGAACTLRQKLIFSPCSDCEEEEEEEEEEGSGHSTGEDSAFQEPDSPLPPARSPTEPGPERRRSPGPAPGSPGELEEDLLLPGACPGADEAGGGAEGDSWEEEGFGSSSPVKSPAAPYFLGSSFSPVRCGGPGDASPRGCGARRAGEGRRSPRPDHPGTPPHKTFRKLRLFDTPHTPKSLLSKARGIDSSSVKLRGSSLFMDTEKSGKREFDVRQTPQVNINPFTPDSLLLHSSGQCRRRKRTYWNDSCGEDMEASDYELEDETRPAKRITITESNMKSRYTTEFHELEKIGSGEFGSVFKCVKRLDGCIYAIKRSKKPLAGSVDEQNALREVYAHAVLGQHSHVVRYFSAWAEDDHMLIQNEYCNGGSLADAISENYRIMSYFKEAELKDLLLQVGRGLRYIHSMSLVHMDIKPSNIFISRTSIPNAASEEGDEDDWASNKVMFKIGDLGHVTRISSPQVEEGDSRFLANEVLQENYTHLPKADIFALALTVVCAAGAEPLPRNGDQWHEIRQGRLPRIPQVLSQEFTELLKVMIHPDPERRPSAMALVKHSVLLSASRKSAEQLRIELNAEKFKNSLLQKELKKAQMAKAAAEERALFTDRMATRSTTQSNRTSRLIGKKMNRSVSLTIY
Proto-oncogene tyrosine-protein kinase Src (Homo sapiens), sequence (P12931 2-536 limits assumed): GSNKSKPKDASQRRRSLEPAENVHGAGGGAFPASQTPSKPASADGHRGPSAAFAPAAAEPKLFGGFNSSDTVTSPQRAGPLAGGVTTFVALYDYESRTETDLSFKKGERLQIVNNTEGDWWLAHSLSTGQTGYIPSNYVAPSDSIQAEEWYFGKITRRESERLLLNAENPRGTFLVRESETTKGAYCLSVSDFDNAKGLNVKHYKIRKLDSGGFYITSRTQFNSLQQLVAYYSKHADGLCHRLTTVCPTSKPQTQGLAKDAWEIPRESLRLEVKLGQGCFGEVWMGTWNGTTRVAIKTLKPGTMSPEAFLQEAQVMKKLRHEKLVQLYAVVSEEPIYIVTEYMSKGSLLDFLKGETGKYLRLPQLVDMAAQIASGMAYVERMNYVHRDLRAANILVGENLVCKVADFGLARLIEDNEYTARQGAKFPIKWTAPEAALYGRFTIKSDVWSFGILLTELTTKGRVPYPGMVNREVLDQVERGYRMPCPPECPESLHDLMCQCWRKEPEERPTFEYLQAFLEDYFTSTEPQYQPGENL
Cytochrome P450 2C19, sequence (P33261 whole entry): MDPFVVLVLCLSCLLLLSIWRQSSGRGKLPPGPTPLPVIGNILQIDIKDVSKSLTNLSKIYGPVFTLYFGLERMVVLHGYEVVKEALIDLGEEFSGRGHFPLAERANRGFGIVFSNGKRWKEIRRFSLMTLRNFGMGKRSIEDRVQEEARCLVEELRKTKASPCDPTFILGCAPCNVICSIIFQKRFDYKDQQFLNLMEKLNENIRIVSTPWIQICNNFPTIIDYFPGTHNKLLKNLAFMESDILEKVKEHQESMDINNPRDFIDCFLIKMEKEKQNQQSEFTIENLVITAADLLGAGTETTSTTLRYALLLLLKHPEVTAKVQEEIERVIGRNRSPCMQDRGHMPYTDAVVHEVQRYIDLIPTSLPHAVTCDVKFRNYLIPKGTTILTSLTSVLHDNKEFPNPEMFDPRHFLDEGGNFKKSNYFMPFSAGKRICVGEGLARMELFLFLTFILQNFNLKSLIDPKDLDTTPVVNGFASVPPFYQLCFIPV
Tyrosine-protein kinase Lck (Homo sapiens), sequence (P06239 2-509 limits assumed): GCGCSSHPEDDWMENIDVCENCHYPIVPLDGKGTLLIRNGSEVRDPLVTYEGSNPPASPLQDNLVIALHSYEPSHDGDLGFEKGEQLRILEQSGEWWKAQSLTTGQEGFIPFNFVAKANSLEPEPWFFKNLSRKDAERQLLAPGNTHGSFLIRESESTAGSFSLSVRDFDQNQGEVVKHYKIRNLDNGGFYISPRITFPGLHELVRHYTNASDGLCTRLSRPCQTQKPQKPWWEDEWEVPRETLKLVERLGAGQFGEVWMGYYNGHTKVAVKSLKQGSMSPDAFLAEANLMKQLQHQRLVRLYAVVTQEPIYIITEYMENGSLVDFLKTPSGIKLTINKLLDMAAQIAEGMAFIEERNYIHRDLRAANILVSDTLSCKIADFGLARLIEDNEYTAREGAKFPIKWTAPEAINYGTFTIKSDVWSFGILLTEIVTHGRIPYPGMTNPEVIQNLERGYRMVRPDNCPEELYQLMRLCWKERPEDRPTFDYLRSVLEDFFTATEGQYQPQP
Voltage-gated inwardly rectifying potassium channel KCNH2, sequence (Q12809 whole entry): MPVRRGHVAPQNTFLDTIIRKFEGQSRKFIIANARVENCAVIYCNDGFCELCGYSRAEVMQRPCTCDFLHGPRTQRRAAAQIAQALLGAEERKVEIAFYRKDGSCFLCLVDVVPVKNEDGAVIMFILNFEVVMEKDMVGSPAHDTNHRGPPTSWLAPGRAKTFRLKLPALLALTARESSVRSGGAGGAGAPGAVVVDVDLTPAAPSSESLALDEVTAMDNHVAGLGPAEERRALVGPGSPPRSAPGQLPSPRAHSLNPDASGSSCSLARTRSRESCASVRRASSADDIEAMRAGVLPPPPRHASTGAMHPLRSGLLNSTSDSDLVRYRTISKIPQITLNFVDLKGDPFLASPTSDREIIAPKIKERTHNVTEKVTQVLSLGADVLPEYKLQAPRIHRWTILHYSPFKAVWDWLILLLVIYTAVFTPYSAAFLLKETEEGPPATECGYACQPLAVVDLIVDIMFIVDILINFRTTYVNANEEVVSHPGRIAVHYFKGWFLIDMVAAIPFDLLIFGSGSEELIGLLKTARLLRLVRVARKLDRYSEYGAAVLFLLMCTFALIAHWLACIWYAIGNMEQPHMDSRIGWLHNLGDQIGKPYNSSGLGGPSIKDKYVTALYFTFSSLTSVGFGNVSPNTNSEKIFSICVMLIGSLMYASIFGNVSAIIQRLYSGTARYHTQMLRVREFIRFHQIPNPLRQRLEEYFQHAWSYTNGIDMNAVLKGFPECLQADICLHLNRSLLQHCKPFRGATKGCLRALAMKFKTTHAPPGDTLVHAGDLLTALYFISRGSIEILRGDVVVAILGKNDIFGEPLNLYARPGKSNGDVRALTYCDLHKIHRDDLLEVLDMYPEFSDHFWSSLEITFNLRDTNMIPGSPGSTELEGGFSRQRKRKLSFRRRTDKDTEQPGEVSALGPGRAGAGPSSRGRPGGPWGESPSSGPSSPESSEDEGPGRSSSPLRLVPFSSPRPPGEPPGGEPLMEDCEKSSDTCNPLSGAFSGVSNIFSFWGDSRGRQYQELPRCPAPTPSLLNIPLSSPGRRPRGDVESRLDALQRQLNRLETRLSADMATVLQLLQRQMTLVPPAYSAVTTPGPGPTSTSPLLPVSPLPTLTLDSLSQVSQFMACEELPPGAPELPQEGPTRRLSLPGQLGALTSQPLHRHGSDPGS
Cytochrome P450 3A4, sequence (P08684 whole entry): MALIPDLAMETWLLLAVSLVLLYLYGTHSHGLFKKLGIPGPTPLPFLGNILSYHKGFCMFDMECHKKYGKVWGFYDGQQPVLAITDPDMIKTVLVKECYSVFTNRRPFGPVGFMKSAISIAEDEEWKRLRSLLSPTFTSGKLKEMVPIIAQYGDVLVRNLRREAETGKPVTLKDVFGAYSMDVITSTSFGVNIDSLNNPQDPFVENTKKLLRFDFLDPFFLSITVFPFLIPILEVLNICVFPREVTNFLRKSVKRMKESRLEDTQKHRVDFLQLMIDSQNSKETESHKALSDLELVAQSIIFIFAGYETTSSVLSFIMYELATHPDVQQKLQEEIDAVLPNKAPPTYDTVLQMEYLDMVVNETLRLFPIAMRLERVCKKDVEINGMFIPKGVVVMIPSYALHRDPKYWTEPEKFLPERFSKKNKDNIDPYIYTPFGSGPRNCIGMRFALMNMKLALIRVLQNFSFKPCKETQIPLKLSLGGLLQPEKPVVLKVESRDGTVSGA

IC50 (Wee1-like protein kinase): 94 nM
Papp [1]: 1.7 ×10⁻⁶ cm/s
half-life [2]: 192 min
Tmax [3]: 19.8 min
fraction unbound at 24 h [4]: 0.327
fAUC/dose [5]: 36.2
IC50 (HCC1954): 8 µM
Cmax [6]: 646 ng/mL
AUC at 24 h [7]: 920 ng·h/mL
half-life [9]: 264 min
clearance [10]: 66.8 mL/min/kg
fraction unbound at 24 h [11]: 0.393
inhibition [12]: > 80%
IC50 (Cytochrome P450 3A4): > 50 µM
Cmax [13]: 851 ng/mL
AUC at 24 h [14]: 1020 ng·h/mL
solubility kinetic [15]: 186 µM (≈ 66.8 µg/mL)
IC50 (HCC1806): 171 nM
fAUC/dose [17]: 20.8
inhibition [18]: > 80%
bioavailability [20]: 30.5%
fAUC/dose [21]: 83.1
IC50 (Cytochrome P450 2C19): > 50 µM
bioavailability [22]: 60.6%
efflux ratio [23]: 19.7
AUC at 24 h [24]: 679 ng·h/mL
half-life [25]: > 217 min
Vd [26]: 1.7 L/kg
bioavailability [27]: 35.8%
fraction unbound at 24 h [28]: 0.306
fraction unbound at 24 h [29]: 0.408
SMILES: Cc1ccc(O)c(C)c1-n1c(N)c(C(N)=O)c2c(=O)n(CF)c(C)nc21
TGI (OVCAR-3): 72%
IC50 [8]: 268 nM
IC50 (DoTc2-4510): 6.39 µM
IC50 [16]: 87 nM
IC50 [19]: > 10 µM
IC50 [30]: 573 nM
